Experimental data reported in PubChem BioAssay AID328 (DTP/NCI, 2004).
Where “and” joins values, the source holds several entries; their conditions need not be identical. Equal entries are not always repeated. Toxic doses and inconclusive results are not listed. Rule for the calls: active = survival T/C of 150% or more; inactive = T/C below 125% in these data.

Tested on: BDF1 mice, P388 leukemia ip, median survival T/C
Experiment: NCI In Vivo Anticancer Drug Screen. Data for tumor model P388 Leukemia (intraperitoneal) in B6D2F1 (BDF1) mice
Conditions: endpoint: median survival time, higher = longer survival
How it was run: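 Steps: implant the tumour, treat one group with compound and another with vehicle, record survival, then divide treated by control.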

[1] = dose: 50.0 mg/kg/injection, schedule: Q01DX009 (ip), vehicle: saline with Tween-80
[2] = dose: 100.0 mg/kg/injection, schedule: Q01DX009 (ip), vehicle: saline with Tween-80
[3] = dose: 50.0 mg/kg/injection, schedule: Q01DX009 (ip), vehicle: saline
[4] = dose: 100.0 mg/kg/injection, schedule: Q01DX009 (ip), vehicle: saline
[5] = dose: 200.0 mg/kg/injection, schedule: Q01DX009 (ip), vehicle: saline
[6] = dose: 25.0 mg/kg/injection, schedule: Q01DX009 (ip), vehicle: saline with Tween-80
[7] = dose: 50.0 mg/kg/injection, schedule: Q01DX005 (ip), vehicle: saline with Tween-80
[8] = dose: 100.0 mg/kg/injection, schedule: Q01DX005 (ip), vehicle: saline with Tween-80
[9] = dose: 100.0 mg/kg/injection, schedule: Q04DX003 (ip), vehicle: saline
[10] = dose: 200.0 mg/kg/injection, schedule: Q04DX003 (ip), vehicle: saline
[11] = dose: 100.0 mg/kg/injection, schedule: Q04DX003 (ip), vehicle: Klucel (hydroxypropylcellulose) (HPC)
[12] = dose: 200.0 mg/kg/injection, schedule: Q04DX003 (ip), vehicle: Klucel (hydroxypropylcellulose) (HPC)
[13] = dose: 400.0 mg/kg/injection, schedule: Q04DX003 (ip), vehicle: Klucel (hydroxypropylcellulose) (HPC)
[14] = dose: 100.0 mg/kg/injection, schedule: Q04DX003 (ip), vehicle: saline sonified
[15] = dose: 200.0 mg/kg/injection, schedule: Q04DX003 (ip), vehicle: saline sonified
[16] = dose: 100.0 mg/kg/injection, schedule: Q04DX003 (ip), vehicle: saline with Tween-80
[17] = dose: 200.0 mg/kg/injection, schedule: Q04DX003 (ip), vehicle: saline with Tween-80
[18] = dose: 400.0 mg/kg/injection, schedule: Q04DX003 (ip), vehicle: saline with Tween-80
[19] = dose: 100.0 mg/kg/injection, schedule: Q01DX009 (ip), vehicle: Klucel (hydroxypropylcellulose) (HPC)
[20] = dose: 200.0 mg/kg/injection, schedule: Q01DX009 (ip), vehicle: Klucel (hydroxypropylcellulose) (HPC)
[21] = dose: 12.5 mg/kg/injection, schedule: Q01DX009 (ip), vehicle: saline with Tween-80
[22] = dose: 50.0 mg/kg/injection, schedule: Q01DX009 (ip), vehicle: Klucel (hydroxypropylcellulose) (HPC)

Measured: T/C

CC(=O)NCCSC(=O)C(=O)SCCNC(C)=O
inactive: dose: 75.0 mg/kg/injection, schedule: Q01DX009 (ip), vehicle: Klucel (hydroxypropylcellulose) (HPC) 100 % of control | dose: 150.0 mg/kg/injection, schedule: Q01DX009 (ip), vehicle: Klucel (hydroxypropylcellulose) (HPC) 95 % of control

CCC(C)(CCC(=O)O)c1ccccc1 (centres undefined)
inactive: dose: 100.0 mg/kg/injection, schedule: Q04DX002 (ip), vehicle: saline with Tween-80 97 % of control | dose: 200.0 mg/kg/injection, schedule: Q04DX002 (ip), vehicle: saline with Tween-80 103 % of control | dose: 400.0 mg/kg/injection, schedule: Q04DX002 (ip), vehicle: saline with Tween-80 106 % of control

COc1ccc(COC(=O)NC(CCS(C)=O)C(=O)O)cc1 (centres undefined)
inactive: [1] 91 % of control | [2] 99 % of control | dose: 200.0 mg/kg/injection, schedule: Q01DX009 (ip), vehicle: saline with Tween-80 99 % of control

COc1ccc(/C=C/C2(O)N(C)C(=O)N(C)C(=O)N2C)cc1
inactive: [3] 89 % of control | [4] 99 % of control | [5] 118 % of control

O=C(NC(=O)c1c(F)cccc1F)Nc1ccc([N+](=O)[O-])cn1
inactive: [6] 96 % of control | [1] 90 % of control | [2] 90 % of control

O=c1c2ccccc2c2nc3ccc4c(=O)c5ccccc5c5nc6ccc1c2c6c3c45
inactive: [7] 100 % of control | [8] 100 % of control

CCn1c(O)c(C=N)c(=O)[nH]c1=O
inactive: [3] 100 % of control | dose: 50.0 mg/kg/injection, schedule: Q04DX003 (ip), vehicle: saline 103 % of control | [4] 109 % of control | [9] 100 % of control | [5] 109 % of control | [10] 115 % of control

C=CCC(CC)(C(=O)O)C(=O)O
inactive: [3] 100 % of control | [4] 90 % of control

O=C(Cc1ccc([N+](=O)[O-])cc1)c1ccccc1
inactive: [11] 112 % of control | [12] 104 % of control | [13] 91 % of control

O=c1[nH]c(=O)n(C2CC(O)C(CO)O2)cc1Br (centres undefined)
inactive: [14] 100 % of control | [15] 100 % of control | dose: 400.0 mg/kg/injection, schedule: Q04DX003 (ip), vehicle: saline sonified 100 % of control

Clc1ccc(N2CCN(CCCN3CCN(c4cccc(Cl)c4)CC3)CC2)cc1
inactive: dose: 50.0 mg/kg/injection, schedule: Q04DX003 (ip), vehicle: saline sonified 100 % of control | [14] 100 % of control | [15] 91 % of control

S=c1nc(COc2ccccc2Cl)[nH][nH]1
inactive: [16] 100 % of control | [17] 109 % of control | [18] 104 % of control

CCC1(c2ccccc2)NC(=O)N(C)C1=O (centres undefined)
inactive: [19] 100 % of control | [11] 104 % of control | [20] 100 % of control | [12] 95 % of control | [13] 95 % of control

COc1ccc(Cl)cc1NC(=O)NNC(=O)C(=O)Nc1ccc(F)cc1
inactive: [7] 91 % of control | [8] 91 % of control | dose: 200.0 mg/kg/injection, schedule: Q01DX005 (ip), vehicle: saline with Tween-80 100 % of control

Cc1ccc(NS(=O)(=O)c2ccc(Br)cc2)c(C)c1
inactive: [16] 100 % of control | [17] 100 % of control | [18] 104 % of control

O=c1[nH]nc(-c2ccccc2)nc1/C(=N\Nc1ccccc1)c1ccccc1
inactive: dose: 1.56 mg/kg/injection, schedule: Q01DX009 (ip), vehicle: saline with Tween-80 92 % of control | dose: 3.12 mg/kg/injection, schedule: Q01DX009 (ip), vehicle: saline with Tween-80 107 % of control | dose: 6.25 mg/kg/injection, schedule: Q01DX009 (ip), vehicle: saline with Tween-80 95 % of control and 98 % of control | [21] 101 % of control | [6] 92 % of control

O=C1NCC(COc2ccc(Cl)cc2)O1 (centres undefined)
inactive: [22] 108 % of control | [19] 105 % of control | [20] 105 % of control

CSc1cc(C)c(O)c(C)c1
inactive: dose: 50.0 mg/kg/injection, schedule: Q01DX009 (ip), vehicle: other 104 % of control | dose: 100.0 mg/kg/injection, schedule: Q01DX009 (ip), vehicle: other 104 % of control | dose: 200.0 mg/kg/injection, schedule: Q01DX009 (ip), vehicle: other 104 % of control

CCCCN(CCCC)CCCNC(=O)OCC
inactive: dose: 25.0 mg/kg/injection, schedule: Q01DX009 (ip), vehicle: Klucel (hydroxypropylcellulose) (HPC) 100 % of control | dose: 25.0 mg/kg/injection, schedule: Q04DX003 (ip), vehicle: Klucel (hydroxypropylcellulose) (HPC) 100 % of control | [22] 110 % of control | dose: 50.0 mg/kg/injection, schedule: Q04DX003 (ip), vehicle: Klucel (hydroxypropylcellulose) (HPC) 104 % of control | [19] 115 % of control | [11] 109 % of control

NC(N)=Nc1ccc(C(=O)Nc2ccc([N+](=O)[O-])cc2)cc1
inactive: [3] 101 % of control | [4] 103 % of control | [9] 97 % of control | [5] 91 % of control | [10] 91 % of control | dose: 400.0 mg/kg/injection, schedule: Q04DX003 (ip), vehicle: saline 100 % of control

CCCCCCCCCCCCCCCCCCCCCCCCC(O)C(=O)NC(CO)C(O)C(O)CCCCCCCCCCCCCC (centres undefined)
inactive: [18] 87 % of control

OC(CC1CCCCN1)c1ccccc1 (centres undefined)
inactive: [21] 99 % of control | [6] 99 % of control | [1] 94 % of control and 110 % of control
